From article doi:10.1101/2024.03.04.583282v1 (biorxiv, 2024)

Experiments:
NATA1Δ = NATA1Δ (Arabidopsis thaliana, UniProt Q9ZV05); test: isothermal titration calorimetry; type: binding
NATA2Δ = NATA2Δ (Arabidopsis thaliana, UniProt Q9ZV06); test: isothermal titration calorimetry; type: binding
Sequence of NATA2Δ (Q9ZV06 30-236, stated change not applied): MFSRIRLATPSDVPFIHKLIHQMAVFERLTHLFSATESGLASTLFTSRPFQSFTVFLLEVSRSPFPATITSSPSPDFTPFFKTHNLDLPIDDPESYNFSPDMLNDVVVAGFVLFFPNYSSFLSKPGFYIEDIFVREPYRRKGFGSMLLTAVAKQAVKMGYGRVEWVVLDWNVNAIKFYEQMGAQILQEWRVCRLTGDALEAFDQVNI

Sequence of NATA1Δ (Q9ZV05 19-228, stated change not applied): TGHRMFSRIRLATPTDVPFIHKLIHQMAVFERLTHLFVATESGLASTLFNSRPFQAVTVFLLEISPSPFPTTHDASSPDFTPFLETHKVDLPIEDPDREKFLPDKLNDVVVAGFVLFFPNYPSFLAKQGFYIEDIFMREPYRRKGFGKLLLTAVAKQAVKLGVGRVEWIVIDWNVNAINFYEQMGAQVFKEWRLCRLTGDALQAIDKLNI

## CC(=O)SCCNC(=O)CCNC(=O)[C@H](O)C(C)(C)COP(=O)(O)OP(=O)(O)OC[C@H]1O[C@@H](n2cnc3c(N)ncnc32)[C@H](O)[C@@H]1OP(=O)(O)O [acCoA]
NATA1Δ
  Kd: ~10 µM
NATA2Δ
  Kd: ~10 µM
